“Also recorded” adds a separate entry of the source.
Experiments:
20-HETE = experiment: Urinary excretion of 20-HETE in rats (fluorescent HPLC assay); format: in vivo, rat; conditions: chronic treatment with HET0016 for 7 days, 1 mg/kg ip twice daily
Description: The rats were divided in four groups. […] This dose was chosen based on our previous results (Kehl F et al., Am J Physiol Heart Circ Physiol 282: H1556-H1565, 2002).
Measurement of urinary excretion of 20-HETE: On the last day of electrical stimulation, rats were placed in a metabolic cage that efficiently separates urine from food. Just before the start of the urine collection, food was withdrawn to avoid contamination of the urine sample, and the 24-h control and treated urine samples were collected into a glass bottle packed with ice. The concentration of 20-HETE in the urine samples was measured using a fluorescent HPLC assay, as previously described (Maier K G et al., Am J Physiol Heart Circ Physiol 279: H863-H871, 2000). […] Excess dye was removed using Sep-Pak Vac extraction (Maier K G et al., Am J Physiol Heart Circ Physiol 279: H863-H871, 2000), and the samples were dried under argon, resuspended in 100 μl of methanol, and analyzed by reverse-phase HPLC (Waters) using a fluorescence detector (model number L-7480; Hitachi, Naperville, Ill.). The amount of 20-HETE in the sample was determined by comparing the area of the 20-HETE peak with that of the internal standard.

9L gliosarcoma tumors = experiment: Growth of 9L gliosarcoma brain tumors in rats (tumor volume); format: in vivo, rat
Protocol: Tumor Implantation: Before implantation, 90% confluent 9L cells were trypsinized and centrifuged. The cell pellet was resuspended in DMEM+10% FBS and counted using a hemocytometer. The concentration of the 9L cells was adjusted to 1×10^4 cells/5 μl of medium. p The brain tumors were seeded by injecting the 9L cell suspensions into the frontal cerebral cortex of Fisher 344 rats that were purchased from Charles River Laboratories (Wilmington, Mass.) as follows. The rats were anesthetized with ketamine (80 mg/Kg, im) and Xylazine (13 mg/Kg), the head was immobilized in a stereotactic frame (David Kopf Instruments, Tujunga, Calif.) and the skull was exposed. A small hole was drilled in the skull 2 mm lateral and 2.5 mm anterior of the bregma, and 5 μl of the 9L gliosarcoma cell suspension were injected 3.5 mm into to cerebral cortex over a 5 min period using a 10 μl Hamilton (#2701) syringe attached to a 26 gauge needle. The hole was sealed with bone wax and the incisions were closed. […] The brains were removed and stored in 10% formalin. […]
Images of H&E stained sections containing tumor were captured using a SONY CCD camera using 2× objective. Using the AIS Image Analysis System (Imaging Research, St. Catherine, ON, Canada) software, the area of tumor in each section was manually outlined and measured in mm^2. […]

p42/p44 MAPK = experiment: Western blot of phospho-p42/p44 MAPK in 9L cells; format: cell-based, rat; conditions: 10 μM HET0016; 4 hr, 24 hr
Protocol: They were then pelleted by centrifugation at 1,000 g for 5 min at 4° C. The cells were lysed by adding RIPA buffer [20 mM HEPES (pH 7.4), 100 mM NaCl, 1% Nonidet P-40, 0.1% SDS, 1% deoxycholic acid, 10% glycerol, 1 mM EDTA, 1 mM NaVO3, 50 mM NaF, and protease inhibitors Set 1 (Calbiochem, La Jolla, Calif.)]. The plates were then scraped and the cells were collected in a 1.5-ml centrifuge tube, followed by incubation on ice for 30 min. The cell homogenates were centrifuged for 10 min at 14,000 g and 4° C.; the pellets were discarded and the protein concentrations in the supernatant determined by bicinchoninic acid (BCA) protein assay.
Typically, 20 μg of protein obtained from the cell homogenates was separated on a 14% Tris-glycine gel (Invitrogen) and transferred to a PVDF membrane (Biotrace, Bothell, Wash.). The membranes were blocked for 1 hr at room temperature with blocking buffer [0.2% I-Block reagent (Tropix, Bedford, Mass.), 0.1% Tween-20 in 1×PBS] and then incubated with the primary antibodies in blocking buffer overnight at 4° C. Phospho-p42/p44 MAPK (T202/Y204)(20G11), and phospho-SAPK/JNK (T183/Y185) (98F2) monoclonal antibodies were purchased from Upstate (Waltham, Mass.). […] Both phospho-p44/p42MAPK and phospho-SAPK/JNK were detected using 1:1000 antibody dilutions. […]

SMILES: CCCCc1ccc(N=CNO)c(C)c1 [HET0016, N-hydroxy-N′-(4-butyl-2 methylphenyl) formamidine]
- reduction of 24-h urinary 20-HETE excretion compared with the control group (lecithin) (20-HETE): 36%
- reduction of the volume of the brain tumor compared to control animals (9L gliosarcoma tumors; 9L cells in rat forebrain, HET0016 10 mg/kg/day sc for 15 days, b179 prints 1 mg/Kg/day, ip, about 2 weeks): 80%
- appearance of rats and tumor size at necropsy (9L gliosarcoma tumors; 17 days after implantation of the tumor): looked healthier; also recorded: much smaller tumor at necropsy
- phosphorylation of p42/p44 MAPK (p42/p44 MAPK): decreases the phosphorylation; also recorded: significantly reduced the phosphorylation; also recorded: even greater after 24 hr

From patent publication US20050124618A1, “Methods of modulating angiogenesis and cancer cell proliferation” (priority 2003, published 2005)
